# Patent US9808469B2, “Antitumor activity of multi-kinase inhibitors in triple negative breast cancer” (ENTRECHEM, S.L, priority 2014, dated 2017)
# Read-outs that look alike come from different tables or passages of the source.
# Columns and labels:
# [1] = system: tyrosine and serine/threonine kinases; assay: Biochemical kinase assays
# [2] = system: HS578T, BT549 and MDA-MB-231 cells; assay: Three-dimensional growth in matrigel (spherical structures); type: cell-based
# Protocol: For three-dimensional cell culture, the bottom of 24 multi-dish plates was covered with a thin ice-cold 4% Matrigel (BD Biosciences) layer and incubated at 37° C. for 20 minutes to allow the Matrigel to solidify. Matrigel was added to conventional DMEM. The desired cells were tripsinized (0.25% trypsin-EDTA solution (2.5 g/L of trypsin, 0.38 g/L of EDTA) collected and resuspended to a final concentration of 12.500 cls/mL in 2% Matrigel. The cell suspension was added over the solidified Matrigel layer and incubated at 37° C. The medium was changed after 4 days and the cell culture was daily visualized under a microscope for phenotype monitoring. The cells were cultured for 10 days.
# HS578T cells = assay: MTT metabolization, inhibition of HS578T cell proliferation; type: cell-based; settings: Homo sapiens, Hs-578T, read-out: Percentage inhibition Formula (III) mean
# Protocol: (§1) These triple negative breast cancer cell lines were obtained from the American Type Culture Collection Cell Biology Collection (ATCC) (Manassas, Va.). The medium was changed every 2 days.
# (§2) Cell proliferation and growth experiments were carried out using 3-(4,5-dimethylthiazol-2-yl)-2,5-diphenyltetrazolium bromide (MTT) uptake assays, where MTT is reduced to purple formazan by the mitochondria of living cells. Increase in cell number is detected by augmented MTT metabolization, and decrease in cell number is reflected by a decrease. […] The cells were treated with the drug at different concentrations to plot the dose-response curves in all cancer cell lines using in the study. […] After treatment, each well was replaced with 250 μL of fresh medium containing MTT ([…]) and incubated for 1 hour. The medium was then removed and 500 μL of dimethyl sulfoxide was added to each well. The plate was agitated in the dark for 5 minutes to dissolve the MTT-formazan crystals. The absorbance of the samples was recorded at 562 nm in a multi-well plate reader (BMG labtech). Results were plotted as the mean values of quadruplicates from a representative experiment that was repeated at least two independent times.
# (§3) Combination index values less than 1 indicate synergism, values equal to 1 indicate an additive effect, whereas values greater than 1 indicate antagonism. Combination index values from three independent experiments were generated.
# MDA-MB-231 cells [3] = assay: Microarray analysis of mRNA and RT-PCR of DNA repair genes; type: cell-based; settings: 500 nM, 24 h; confirmed by RT-PCR
# Protocol: MDA-MB-231 cells were grown in DMEM with 10% of FBS, and when 70% confluent, cells were treated with 500 nM Formula (III) for 24 h. Total RNA was extracted and purified using the RNeasy Mini Kit (Qiagen). Double-stranded cDNA and biotinylated cRNA were synthesized using a T7-polyT primer and the BioArray RNA labeling kit (Enzo Life Sciences, Farmingdale, N.Y.), respectively. The labeled RNA was fragmented and hybridized to human oligonucleotide arrays (Human Gene ST Arrays) (Affymetrix, Santa Clara, Calif.) according to manufacturers instructions. For the microarray data analysis, Affymetrix CEL files from each of the two microarray hybridization experiments for the two conditions [untreated control and treated with 500 nM Formula (III)] were imported into the dChip software (Dana Farber Cancer Institute, Boston, Mass.). […] The list of genes was analyzed using functional annotation bioinformatics microarray analysis (DAVID), and gene set enrichment analyses (GSEA). […]
# Total RNA was extracted from cells with Rneasy Mini Kit (QIAGEN) as recommended by the supplier. cDNAs were synthesized from […] of total RNA by using RevertAid H Minus First Strand cDNA synthesis Kit (Fermentas) in a total volume of […]. […] Samples were analyzed in triplicate and mRNA expression was normalized to GADPH […] and quantified by the comparative cycle threshold (Ct) method. […]
# [4] = system: HS578T, BT549 and MDA-MB-231 cells; assay: Apoptosis by Annexin V staining, single agent; type: cell-based; settings: 500 nM, 24 and 48 hours
# Protocol: Cell cycle analyses and evaluation of apoptosis were performed by flow cytometry using propidium iodide and Annexin V, respectively.
# For apoptosis analyses, HS578T, BT549 and MDA-MB-231 cell monolayers were incubated in trypsin-EDTA, washed twice with cold PBS, and then resuspended in binding buffer (10 mM HEPES free acid [pH 7.4], 140 mM NaCl, 2.5 mM CaCl2) at a concentration of 1×10^6 cells per mL. A total of 1×10^5 cells were incubated for 15 minutes in the dark with Annexin V-APC (BD Biosciences) and propidium iodide (PI) staining solution (5 μL Annexin V-[…], 10 μL of PI [[…] final concentration], 400 μL binding buffer).
# MDA-MB-231 cells [5] = assay: MTT metabolization, inhibition of MDA-MB-231 cell proliferation; type: cell-based; settings: Homo sapiens, read-out: Percentage inhibition Formula (III) mean
# Protocol: as §1, §2, §3
compound,measurement,setting,value
C[C@]12O[C@H](C[C@@H](O)[C@H]1O)n1c3ccccc3c3c4c(c5c6ccccc6n2c5c31)C(=O)NC4=O [Formula (III)],concentration range of kinase affinity and inhibition,[1],nanomolar and subnanomolar range
same,diameter of spherical structures in matrigel,[2],strongly decreased the diameter of these spheres
same,percent inhibition of cell proliferation at 0.1 µM,HS578T cells; Formula (III) 100 nM alone (Table 14),76.2%
same,percent inhibition of cell proliferation at 0.1 µM,HS578T cells; Formula (III) 100 nM alone (Table 15),93.5%
same,percent inhibition of cell proliferation at 0.12 µM,HS578T cells; Formula (III) 120 nM alone (Table 12),74.9%
same,percent inhibition of cell proliferation at 0.12 µM,HS578T cells; Formula (III) 120 nM alone,74.9%
same,percent inhibition of cell proliferation at 0.18 µM,HS578T cells; Formula (III) 180 nM alone (Table 12),67.5%
same,percent inhibition of cell proliferation at 0.18 µM,HS578T cells; Formula (III) 180 nM alone,67.5%
same,percent inhibition of cell proliferation at 0.2 µM,HS578T cells; Formula (III) 200 nM alone (Table 13),67.8%
same,percent inhibition of cell proliferation at 0.2 µM,HS578T cells; Formula (III) 200 nM alone (Table 14),72.4%
same,percent inhibition of cell proliferation at 0.2 µM,HS578T cells; Formula (III) 200 nM alone (Table 15),77.6%
same,percent inhibition of cell proliferation at 0.24 µM,HS578T cells; Formula (III) 240 nM alone (Table 12),50.8%
same,percent inhibition of cell proliferation at 0.24 µM,HS578T cells; Formula (III) 240 nM alone,50.8%
same,percent inhibition of cell proliferation at 0.26 µM,HS578T cells; Formula (III) 260 nM alone (Table 13),59.9%
same,percent inhibition of cell proliferation at 0.3 µM,HS578T cells; Formula (III) 300 nM alone (Table 12),46.8%
same,percent inhibition of cell proliferation at 0.3 µM,HS578T cells; Formula (III) 300 nM alone (Table 13),52.2%
same,percent inhibition of cell proliferation at 0.3 µM,HS578T cells; Formula (III) 300 nM alone (Table 14),66.3%
same,percent inhibition of cell proliferation at 0.3 µM,HS578T cells; Formula (III) 300 nM alone (Table 15),72.3%
same,percent inhibition of cell proliferation at 0.3 µM,HS578T cells; Formula (III) 300 nM alone,46.8%
same,percent inhibition of cell proliferation at 0.38 µM,HS578T cells; Formula (III) 380 nM alone (Table 13),48.9%
same,percent inhibition of cell proliferation at 0.4 µM,HS578T cells; Formula (III) 400 nM alone (Table 14),57.4%
same,percent inhibition of cell proliferation at 0.4 µM,HS578T cells; Formula (III) 400 nM alone (Table 15),66.6%
same,expression of genes involved in DNA repair,MDA-MB-231 cells [3],increased expression of genes involved in DNA repair
same,apoptosis (Annexin V staining),[4],"an increase at 48 hours, more evident in HS578T"
same,viability at 0.1 µM,"MDA-MB-231 cells [5]; MDA-MB-231, Formula (III) 100 nM alone (Table 4)",56.4%
same,viability at 0.1 µM,"MDA-MB-231 cells [5]; MDA-MB-231, Formula (III) 100 nM alone (Table 5)",62.5%
same,viability at 0.12 µM,"MDA-MB-231 cells [5]; MDA-MB-231, Formula (III) 120 nM alone (Table 2)",63.8%
same,viability at 0.12 µM,"MDA-MB-231 cells [5]; MDA-MB-231, Formula (III) 120 nM alone",63.8%
same,viability at 0.18 µM,"MDA-MB-231 cells [5]; MDA-MB-231, Formula (III) 180 nM alone (Table 2)",49.8%
same,viability at 0.18 µM,"MDA-MB-231 cells [5]; MDA-MB-231, Formula (III) 180 nM alone",49.8%
same,viability at 0.2 µM,"MDA-MB-231 cells [5]; MDA-MB-231, Formula (III) 200 nM alone (Table 3)",60.3%
same,viability at 0.2 µM,"MDA-MB-231 cells [5]; MDA-MB-231, Formula (III) 200 nM alone (Table 4)",56.4%
same,viability at 0.2 µM,"MDA-MB-231 cells [5]; MDA-MB-231, Formula (III) 200 nM alone (Table 5)",46.9%
same,viability at 0.24 µM,"MDA-MB-231 cells [5]; MDA-MB-231, Formula (III) 240 nM alone (Table 2)",38.2%
same,viability at 0.24 µM,"MDA-MB-231 cells [5]; MDA-MB-231, Formula (III) 240 nM alone",38.2%
same,viability at 0.26 µM,"MDA-MB-231 cells [5]; MDA-MB-231, Formula (III) 260 nM alone (Table 3)",54.5%
same,viability at 0.3 µM,"MDA-MB-231 cells [5]; MDA-MB-231, Formula (III) 300 nM alone (Table 2)",28.1%
same,viability at 0.3 µM,"MDA-MB-231 cells [5]; MDA-MB-231, Formula (III) 300 nM alone (Table 3)",49.4%
same,viability at 0.3 µM,"MDA-MB-231 cells [5]; MDA-MB-231, Formula (III) 300 nM alone (Table 4)",40.2%
same,viability at 0.3 µM,"MDA-MB-231 cells [5]; MDA-MB-231, Formula (III) 300 nM alone (Table 5)",40.5%
same,viability at 0.3 µM,"MDA-MB-231 cells [5]; MDA-MB-231, Formula (III) 300 nM alone",28.1%
same,viability at 0.38 µM,"MDA-MB-231 cells [5]; MDA-MB-231, Formula (III) 380 nM alone (Table 3)",36.9%
same,viability at 0.4 µM,"MDA-MB-231 cells [5]; MDA-MB-231, Formula (III) 400 nM alone (Table 4)",35.3%
same,viability at 0.4 µM,"MDA-MB-231 cells [5]; MDA-MB-231, Formula (III) 400 nM alone (Table 5)",33.7%
